Test results as given in patent US20260199533A1, “RA[…]-AFFINITY COMPOUND AND USE THEREOF” (Osaka University, priority 2022, published 2026).

How the values were obtained:
FAPα/A549 cells = experiment: Uptake of 211At-labeled FAPI derivatives into A549 and FAPα/A549 cells; format: cell-based, human; details: for uptake level in dependence on FAPα expression: A549 (low FAPα) vs FAPα/A549 (high FAPα), 30 min; for competitive inhibition by addition of the corresponding unlabeled form: A549 / FAPα/A549 cells
Source text: (§1) Human non-small cell lung cancer cell lines (A549), human triple-negative (estrogen and progesterone receptors which are hormone receptors, as well as HER2 protein, are all absent) breast cancer cell lines (MDA-MB-231), and A549 cells and MDA-MB-231 cells, each transfected with the human fibroblast activation protein (FAPα) gene (FAPα/A549, FAPα/MDA-MB-231) were used in the experiments as cancer cells with low FAPα expression and cancer cells with high FAPα expression (mimic after high-order histogenesis), respectively. For each type, the cells were seeded in a 24-well plate at 2×10^4 cells per well and cultured for 2 days. An appropriate amount of two ^211At-labeled FAPI derivatives (PIP(1,H) […], PIP-amide(1,H) (Example 14)) were added to each type of the above cells, respectively, and cultured for 30 min. The supernatant was removed by aspiration, and the cells were washed with PBS(−), and then 0.1N sodium hydroxide solution was added to lyse the cells, and the intracellular radioactivity was measured by a gamma counter. The radioactivity count was corrected per unit protein amount (counts/μg protein). […] Considering that the uptake level into human embryonic kidney-derived cells (HEK293) was about 20 counts/μg protein at most, based on the results of PIP(1,F) and the like in Experimental Example 1, it can be said that cancer cells take up more FAPI derivatives than non-cancer cells.

FAPα/MDA-MB-231 cells = experiment: Uptake of 211At-labeled FAPI derivatives into MDA-MB-231 and FAPα/MDA-MB-231 cells; format: cell-based, human; details: for uptake level in dependence on FAPα expression: MDA-MB-231 (low FAPα) vs FAPα/MDA-MB-231 (high FAPα), 30 min; for competitive inhibition by addition of the corresponding unlabeled form: MDA-MB-231 / FAPα/MDA-MB-231 cells
Source text: as §1

[1] = Changes in body weight of human pancreatic cancer-transplanted mice; format: in vivo, nude mice; details: intravenous 1 MBq per mouse, N=4, three weeks, vs saline control
Experimental: (§2) Human pancreatic cancer cells (PANC-1) were subcutaneously administered at 1×10^7 cells to nude mice (male, 6-weeks old) to generate pancreatic cancer-transplanted mice. The mice were intravenously injected with ^211At(C1)-Pip-6Qui-FAPI(H) (PIP(1,H), Example 2) or 211At(C1)-PEG2-6Qui-FAPI(H) (PEG(1,H), Example 6) at 1 MBq per mouse (N=4). Physiological saline was administered to the control group (Control (Saline)) (N=4).

[2] = tested on: Human pancreatic cancer cells (PANC-1); experiment: Inhibitory effect on tumor growth in human pancreatic cancer-transplanted mice; format: in vivo, nude mice; details: PANC-1 subcutaneous, intravenous 1 MBq per mouse, N=4, three weeks, vs saline control
Experimental: as §2

[3] = tested on: FAPα/293 cells (293 cells transfected with the human fibroblast activation protein (FAPα) gene); experiment: Uptake of 211At-labeled FAPI derivatives into FAPα/293 cells; format: cell-based; details: cultured 30 min, gamma counter, rank order of the three highest of eight derivatives
Experimental: Human embryonic kidney 293 cells (HEK293), and 293 cells transfected with the human fibroblast activation protein (FAPα) gene (FAPα/293) were used in the experiment as FAPα-negative and FAPα-positive cells, respectively. For each type, the cells were seeded in a 24-well plate at 2×10^4 cells per well and cultured for 2 days. An appropriate amount of eight ^211At-labeled FAPI derivatives (Gly(1,F) (Example 8), PEG(1,F) (Example 5), PIP(1,F) (Example 1), PIP(1,H)-8Qui (Example 3), Ac-PIP (Example 13), PEG4(1,H) (Example 7), GlcN-PEG(1,F) (Example 11), PEG(1,H) (Example 6)) were added to each type of the above cells, respectively, and cultured for 30 min. The supernatant was removed by aspiration, and then 0.1N sodium hydroxide solution was added to lyse the cells, and the intracellular radioactivity was measured by a gamma counter. The radioactivity count was corrected per unit protein amount (counts/μg protein). The three compounds with the highest uptake levels into FAPα-positive cells were PIP(1,F)>PIP(1,H)-8Qui>PEG(1,H), in order of […] level.

[4] = Stability of the radiolabeled product; format: physicochemical; details: alkylene chain length 0, after purification

| SMILES | uptake level in dependence on FAPα expression (FAPα/A549 cells) | competitive inhibition by addition of the corresponding unlabeled form (FAPα/A549 cells) | uptake level in dependence on FAPα expression (FAPα/MDA-MB-231 cells) | competitive inhibition by addition of the corresponding unlabeled form (FAPα/MDA-MB-231 cells) | changes in body weight [1] | inhibitory effect on tumor growth (tumor size) [2] | uptake levels into FAPα-positive cells (intracellular radioactivity) [3] | stability of the product [4] | other results |
| --- | --- | --- | --- | --- | --- | --- | --- | --- | --- |
| N#C[C@@H]1CCCN1C(=O)CNC(=O)c1ccnc2ccc(OCCCN3CCN(C(=O)Cc4ccc([211At])cc4)CC3)cc12 [Example 2, ^211At(C1)-Pip-6Qui-FAPI(H)] | uptake level increased as FAPα expression increased | could be suppressed to a low level | uptake level increased as FAPα expression increased | could be suppressed to a low level | comparable to that of the control group | superior inhibitory effects on tumor growth compared to the control group |  |  | uptake level (intracellular radioactivity), comparison between derivatives (FAPα/A549 cells; A549 and FAPα/A549 cells, cultured 30 min): slightly higher than that of PIP-amide(1,H); uptake level (intracellular radioactivity), comparison between derivatives (FAPα/MDA-MB-231 cells; MDA-MB-231 and FAPα/MDA-MB-231 cells, cultured 30 min): slightly higher than that of PIP-amide(1,H) |
| N#C[C@@H]1CCCN1C(=O)CNC(=O)c1ccnc2c(OCCCN3CCN(C(=O)Cc4ccc([211At])cc4)CC3)cccc12 [Example 3, ^211At(C1)-Pip-8Qui-FAPI(H)] |  |  |  |  |  |  | PIP(1,F)>PIP(1,H)-8Qui>PEG(1,H) |  |  |
| N#C[C@@H]1CCCN1C(=O)CNC(=O)c1ccnc2ccc(OCCOCCNC(=O)Cc3ccc([211At])cc3)cc12 [Example 6, ^211At(C1)-PEG2-6Qui-FAPI(H)] |  |  |  |  | comparable to that of the control group | superior inhibitory effects on tumor growth compared to the control group | PIP(1,F)>PIP(1,H)-8Qui>PEG(1,H) |  |  |
| N#C[C@@H]1CC(F)(F)CN1C(=O)CNC(=O)c1ccnc2ccc(OCCCN3CCN(C(=O)CCCO[C@@H]4OC(CO)[C@@H](O)C(O)[C@@H]4NC(=O)c4ccc([211At])cc4)CC3)cc12 (stereo partly drawn) [Example 9, ^211At(CO)-GlcN-Pip-6Qui-FAPI(F)] |  |  |  |  |  |  |  | low |  |
| N#C[C@@H]1CCCN1C(=O)CNC(=O)c1ccnc2ccc(OCCCN3CCN(C(=O)CCCO[C@@H]4OC(CO)[C@@H](O)C(O)[C@@H]4NC(=O)c4ccc([211At])cc4)CC3)cc12 (stereo partly drawn) [Example 10, ^211At(C0)-GlcN-Pip-6Qui-FAPI(H)] |  |  |  |  |  |  |  | low |  |
| N#C[C@@H]1CCCN1C(=O)CNC(=O)c1ccnc2ccc(OCCC(=O)N3CCN(C(=O)Cc4ccc([211At])cc4)CC3)cc12 [Example 14, ^211At(C1)-Pip-amido-6Qui-FAPI(H)] | uptake level increased as FAPα expression increased | could be suppressed to a low level | uptake level increased as FAPα expression increased | could be suppressed to a low level |  |  |  |  |  |
